Assay results reported in patent publication US20240368174A1, “Antiviral Heterocyclic Compounds” (Enanta Pharmaceuticals, Inc., priority 2023, published 2024).

Key:
[1] = tested on: genotype A, “Long” strain RSV; test: RSV-A assay (CPE, ATPlite readout in Hep-2 cells); assay type: cell-based, Human respiratory syncytial virus; details: human respiratory syncytial virus, activity class
In short: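 ATPlite luminescence (cellular ATP) served as the measure of cell health after 5 days of infection. Hep-2 cells at 8,000 per well received duplicate 2-fold compound dilutions plus virus at MOI 0.1, and EC50 was calculated from CPE protection.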

[2] = tested on: HMPV clinical isolate A2 strain TN 94-49; test: HMPV antiviral assay, Method 1 (LLC-MK2 cells, ATP-Lite); assay type: cell-based; details: human metapneumovirus, hMPV A2 TN/94-49, LLC-MK2 cells
In short: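 EC50 derived by four-parameter logistic fit of percent cell health, measured as ATP-Lite luminescence after 7 days at 37° C, 5% CO2. Compounds tested as 10-point 2.5-fold dilutions starting at 2 μM against TN 94-49 virus (MOI 0.005) in LLC-MK2 cells seeded at 5,000/well, infection medium containing 2 μg/mL TPCK-trypsin, serum-free.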

[3] = tested on: HMPV clinical isolate A2 strain TN 94-49; test: HMPV antiviral assay, Method 2 (LLC-MK2 cells with CP-100-356, ATP-Lite); assay type: cell-based; details: human metapneumovirus, 168 h; hMPV A2 TN/94-49, LLC-MK2 cells with 4 μM CP-100-356, 7 days, ATP-Lite
In short: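 EC50 comes from a four-parameter fit of percent cell viability (ATP-Lite, normalized to virus-only and cell-only wells) after 7 days at 37 °C. Infection used HMPV A2 TN 94-49 at MOI 0.16 in LLC-MK2 cells, with 2 μM P-gp inhibitor CP-100-356 and 2 μg/mL TPCK-trypsin final; dose range 200 nM top, 2.5-fold, 10 points, duplicate.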

SMILES | EC50 [1] [nM] | EC50 [2] [nM] | EC50 [3] [nM]
COc1cc(C(=O)NC[C@@](O)(c2ccc(F)cc2)c2cc3c(c(-c4ccc5c(c4Cl)OC(F)(F)O5)n2)OC[C@]3(C)C(N)=O)cc2cn(C3CC3)nc12 [Example 25] | < 200 | < 500 | 
C[C@]1(C(N)=O)COc2c1cc([C@@](O)(CNC(=O)c1cc(OC3CC3)c3nn(C4CC4)cc3c1)C1CC(F)(F)C1)nc2-c1cc(F)c(F)cc1F [Example 32] | < 200 | < 500 | 
C[C@]1(C(N)=O)COc2c1cc([C@@](O)(CNC(=O)c1ccc3nc(N)sc3c1)C1CC1)nc2-c1cc(F)c(F)cc1F [Example 73] | < 200 | > 500 | 
Cc1nc2ccc(C(=O)NC[C@](O)(c3cc4c(c(-c5cc(Cl)c(F)cc5F)n3)OC[C@]4(C)C(N)=O)C3CC3)cc2s1 [Example 74] | < 200 | < 500 | 
Cc1nc2ccc(C(=O)NC[C@](O)(c3cc4c(c(-c5cc(Cl)c(F)cc5F)n3)OC[C@]4(C)C(N)=O)C3CC3)cc2o1 [Example 75] | < 200 | < 500 | 
Cc1nc2c(OC3CC3)cc(C(=O)NC[C@](O)(c3cc4c(c(-c5cc(Cl)c(F)cc5F)n3)OC[C@]4(C)C(N)=O)C3CC3)cc2s1 [Example 76] | < 200 | < 500 | 
[2H]C([2H])([2H])c1nc2ccc(C(=O)NC[C@](O)(c3cc4c(c(-c5cc(Cl)c(F)cc5F)n3)OC[C@]4(C)C(N)=O)C3CC3)cc2o1 [Example 91] | < 200 | < 500 | 
[2H]C([2H])([2H])c1nc2ccc(C(=O)NC[C@](O)(c3cc4c(c(-c5cc(F)c(F)cc5F)n3)OC[C@]4(C)C(N)=O)C3CC3)cc2o1 [Example 92] | < 200 | < 500 | 
COc1cc(C(=O)NC[C@](O)(c2cc3c(c(-c4cc(C(F)(F)F)ncc4F)n2)OC[C@]3(C)C(N)=O)C2(F)CC2)cc2oc(C3CC3)nc12 [Example 670] | < 200 |  | < 200
C[C@]1(C(N)=O)COc2c1cc([C@@](O)(CNC(=O)c1cc(Cl)c3nn(C4CC4)cc3c1)C1(F)CC1)nc2-c1cc(C(F)(F)F)ncc1F [Example 671] | < 200 |  | < 200
C[C@]1(C(N)=O)COc2c1cc([C@@](O)(CNC(=O)c1cc(OCCO)c3nn(C4CC4)cc3c1)C1CC1)nc2-c1ccc2c(c1Cl)OC(F)(F)O2 [Example 681] | < 200 |  | < 200
COc1cc(C(=O)NC[C@](O)(c2cc3c(c(-n4ccc5c(F)cccc54)n2)OC[C@]3(C)C(N)=O)C2(F)CC2)cc2cn(C(F)F)nc12 [Example 688] | < 200 |  | < 200
COc1cc(C(=O)NC[C@](O)(c2cc3c(c(-n4ccc5c(F)cccc54)n2)OC[C@]3(C)C(N)=O)C2(F)CC2)cc2cn(C3(F)CC3)nc12 [Example 689] | < 200 |  | < 200
COc1cc(C(=O)NC[C@](O)(c2cc3c(c(-n4ccc5c(F)cccc54)n2)OC[C@]3(C)C(N)=O)C2(F)CC2)cn2cc(C3CC3)nc12 [Example 690] | < 200 |  | < 200
COc1cc(C(=O)NC[C@](O)(c2cc3c(c(-c4ccnc(C5CC5)c4Cl)n2)OC[C@]3(C)C(N)=O)C2CC2)cc2cn(C3CC3)nc12 [Example 721] | < 200 |  | < 200
COc1cc(C(=O)NC[C@](O)(c2cc3c(c(-c4cncc(OC(F)F)c4Cl)n2)OC[C@]3(C)C(N)=O)C2CC2)cc2cn(C(F)F)nc12 [Example 742] | < 200 |  | < 200
COc1nccc(-c2nc([C@@](O)(CNC(=O)c3cc(OC)c4nc(C5CC5)oc4c3)C3CC3)cc3c2OC[C@]3(C)C(N)=O)c1Cl [Example 745] | < 200 |  | < 200
COc1cc(C(=O)NC[C@](O)(c2cc3c(c(-c4ccnc(C(F)(F)F)c4Cl)n2)OC[C@]3(C)C(N)=O)C2CC2)cc2cn(C(F)F)nc12 [Example 758] | < 200 |  | < 200
COc1cc(C(=O)NC[C@](O)(c2cc3c(c(-c4ccnc(C(F)(F)F)c4Cl)n2)OC[C@]3(C)C(N)=O)C2CC2)cc2cn(C3(F)CC3)nc12 [Example 760] | < 200 |  | < 200
COc1cc(C(=O)NC[C@](O)(c2cc3c(c(-c4ccnc(C(F)(F)F)c4Cl)n2)OC[C@]3(C)C(N)=O)C2CC2)cc2oc(C3CC3)nc12 [Example 762] | < 200 |  | < 200
COc1cc(C(=O)NC[C@](O)(c2cc3c(c(-n4ccc5c(F)cccc54)n2)OC[C@]3(C)C(N)=O)C2CC2)cc2cn(C(F)F)nc12 [Example 776] | < 200 |  | < 200
COc1cc(C(=O)NC[C@](O)(c2cc3c(c(-n4ccc5c(F)cccc54)n2)OC[C@]3(C)C(N)=O)C2CC2)cc2cn(C3(F)CC3)nc12 [Example 777] | < 200 |  | < 200

SMILES | EC50 [1] [nM] | EC50 [2] [nM] | EC50 [3] [nM]
COc1cc(C(=O)NC[C@](O)(c2cc3c(c(-n4ccc5c(F)cccc54)n2)OC[C@]3(C)C(N)=O)C2CC2)cc2oc(C3CC3)nc12 [Example 778] | < 200 |  | < 200
COc1cc(C(=O)NC[C@](O)(c2cc3c(c(-c4ccnc(C(F)F)c4Cl)n2)OC[C@]3(C)C(N)=O)C2CC2)cc2cn(C3CC3)nc12 [Example 780] | < 200 |  | < 200
COc1cc(C(=O)NC[C@](O)(c2cc3c(c(-c4ccnc(C(F)(F)F)c4Cl)n2)OC[C@]3(C)C(N)=O)C(F)(F)F)cc2cn(C3CC3)nc12 [Example 783] | < 200 |  | < 200
COc1cc(C(=O)NC[C@](O)(c2cc3c(c(-c4ccnc(C(F)F)c4Cl)n2)OC[C@]3(C)C(N)=O)C2CC2)cc2cn(C(F)F)nc12 [Example 785] | < 200 |  | < 200
COc1cc(C(=O)NC[C@](O)(c2cc3c(c(-c4ccnc(C(F)F)c4Cl)n2)OC[C@]3(C)C(N)=O)C2CC2)cc2cn(C3(F)CC3)nc12 [Example 786] | < 200 |  | < 200
COc1cc(C(=O)NC[C@](O)(c2cc3c(c(-c4ccnc(C(F)F)c4Cl)n2)OC[C@]3(C)C(N)=O)C2CC2)cc2oc(C3CC3)nc12 [Example 787] | < 200 |  | < 200
COc1nccc(-c2nc([C@@](O)(CNC(=O)c3cc(OC)c4nn(C(F)F)cc4c3)C3CC3)cc3c2OC[C@]3(C)C(N)=O)c1Cl [Example 788] | < 200 |  | < 200
COc1nccc(-c2nc([C@@](O)(CNC(=O)c3cc(OC)c4nn(C5(F)CC5)cc4c3)C3CC3)cc3c2OC[C@]3(C)C(N)=O)c1Cl [Example 789] | < 200 |  | < 200
COc1cc(C(=O)NC[C@](O)(c2cc3c(c(-c4ccnc(C(F)(F)F)c4F)n2)OC[C@]3(C)C(N)=O)C2CC2)cc2cn(C3CC3)nc12 [Example 794] | < 200 |  | < 200
COc1cc(C(=O)NC[C@](O)(c2cc3c(c(-c4ccnc(C(F)F)c4Cl)n2)OC[C@]3(C)C(N)=O)C(F)(F)F)cc2cn(C3CC3)nc12 [Example 795] | < 200 |  | < 200
COc1nccc(-c2nc([C@@](O)(CNC(=O)c3cc(OC)c4nn(C5CC5)cc4c3)C(F)(F)F)cc3c2OC[C@]3(C)C(N)=O)c1Cl [Example 796] | < 200 |  | < 200
COc1cc(C(=O)NC[C@](O)(c2cc3c(c(-c4ccnc(C(F)(F)F)c4F)n2)OC[C@]3(C)C(N)=O)C2CC2)cc2cn(C3(F)CC3)nc12 [Example 800] | < 200 |  | < 200
COC1=CC(C(=O)NC[C@](O)(c2cc3c(c(-c4ccnc(C(F)(F)F)c4F)n2)OC[C@]3(C)C(N)=O)C2CC2)=CC2OC(C3CC3)=NC12 (some centres unmarked) [Example 801] | < 200 |  | < 200
COc1cc(C(=O)NC[C@](O)(c2cc3c(c(-n4ncc5c(F)cccc54)n2)OC[C@]3(C)C(N)=O)C2CC2)cc2cn(C3CC3)nc12 [Example 820] | < 200 |  | < 200
COc1cc(C(=O)NC[C@](O)(c2cc3c(c(-n4ncc5cc(F)ccc54)n2)OC[C@]3(C)C(N)=O)C2CC2)cc2cn(C3CC3)nc12 [Example 821] | < 200 |  | < 200
COc1cc(C(=O)NC[C@](O)(c2cc3c(c(-c4ccn5nccc5c4Cl)n2)OC[C@]3(C)C(N)=O)C2CC2)cc2cn(C3CC3)nc12 [Example 824] | < 200 |  | < 200
COc1cc(C(=O)NC[C@](O)(c2cc3c(c(-n4ccc5c(F)cccc54)n2)OC[C@]3(C)C(N)=O)C(F)(F)F)cc2cn(C3CC3)nc12 [Example 851] | < 200 |  | < 200
COc1cc(C(=O)NC[C@](O)(c2cc3c(c(-n4ccc5cc(F)ccc54)n2)OC[C@]3(C)C(N)=O)C(F)(F)F)cc2cn(C3CC3)nc12 [Example 852] | < 200 |  | < 200
COc1cc(C(=O)NC[C@](O)(c2cc3c(c(-n4ccc5c(F)cccc54)n2)OC[C@]3(C)C(N)=O)C2(F)CC2)cc2cn(C3CC3)nc12 [Example 861] | < 200 |  | < 200
COc1cc(C(=O)NC[C@](O)(c2cc3c(c(-n4ccc5c(OC(F)F)cccc54)n2)OC[C@]3(C)C(N)=O)C2CC2)cc2cn(C3CC3)nc12 [Example 864] | < 200 |  | < 200
COc1cc(C(=O)NC[C@](O)(c2cc3c(c(-n4ccc5c(F)cccc54)n2)OC[C@]3(C)C(N)=O)C2CC2)cn2cc(C3CC3)nc12 [Example 868] | < 200 |  | < 200
